US7265130B2, “NPY Y5 antagonist” (Shionogi & Co., Ltd., priority 1999, dated 2007)
pIC50: −log10 of the molar value.

Legend:
human NPY Y5 receptor [1] = molecular target: T1, human NPY Y5 receptor (Homo sapiens, UniProt Q15761); experiment: cAMP production inhibitory activity in CHO cells; type: cell-based; conditions: against 50 nM NPY inhibition of forskolin stimulated cAMP, CHO cells expressing human NPY Y5 receptor
T1 construct: expressed in transfected cells
T1 sequence (Q15761 1-445): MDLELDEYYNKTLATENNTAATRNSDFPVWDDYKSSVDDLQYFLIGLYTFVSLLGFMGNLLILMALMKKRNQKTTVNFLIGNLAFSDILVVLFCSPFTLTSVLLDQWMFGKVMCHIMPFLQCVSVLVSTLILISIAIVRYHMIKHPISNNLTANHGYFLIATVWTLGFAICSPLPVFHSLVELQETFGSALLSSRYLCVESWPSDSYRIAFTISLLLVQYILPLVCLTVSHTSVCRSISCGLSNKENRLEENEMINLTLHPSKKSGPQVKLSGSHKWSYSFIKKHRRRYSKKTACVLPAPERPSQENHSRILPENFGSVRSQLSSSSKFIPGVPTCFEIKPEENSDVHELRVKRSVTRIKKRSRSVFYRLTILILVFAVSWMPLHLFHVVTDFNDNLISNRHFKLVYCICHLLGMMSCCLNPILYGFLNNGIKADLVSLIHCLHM
Protocol: Experiment 2 cAMP production inhibitory activity in CHO cells
After CHO cells expressing human NPY Y5 receptor were incubated in the presence of 2.5 mM isobutylmethylxanthine (SIGMA) at 37° C. for 20 min., the compound of the present invention was added and incubated for 5 min. Then, 50 nM NPY and 10 μM forskolin (SIGMA) were added to the cells and incubated for 30 min. After the reaction was terminated by adding 1N HCl, the amount of cAMP in the supernatant was measured with EIA kit (Amersham LIFE SCIENCE).

human NPY Y5 receptor [2] = molecular target: T1, human NPY Y5 receptor; experiment: Affinity for NPY Y5 receptor ([125I] peptide YY binding, CHO cell membranes); conditions: inhibition of specific [125I] peptide YY binding, membranes of CHO cells expressing NPY Y5 receptor
Text: Experiment 1 Affinity for NPY Y5 Receptor
cDNA sequence encoding a human NPY Y5 receptor (WO096/16542) was cloned in the expression vector pME18S (Takebe et al. Mol. Cell. Biol. 8, 8957). The obtained expression vector was transfected into a host CHO cells by using a Lipofect AMINE reagent (Trademark, Gibco BRL Co., Ltd.) according to an instruction protocol to obtain the cells that stably express NPY Y5 receptor.
The membranes prepared from the above CHO cells expressing NPY Y5 receptor, the compound of the present invention and 30,000 cpm [^125I] peptide YY (60 pM of final concentration: Amersham) were incubated in the assay buffer (20 mM HEPES-Hanks buffer containing 0.1% bovine serum albumin, pH 7.4) at 25° C. for 2 hours, and then the mixture was filtered with a glassfilter GF/C treated with polyethyleneimine. After the glassfilter was washed with 50 mM Tris-HCl buffer (pH 7.4), the radioactivity on the filter was measured with a gamma counter. The non-specific binding was detected in the presence of 200 nM of peptide YY. The 50% inhibitory concentration of the test compound against the specific peptide YY binding (IC50 value) was calculated (Inui, A. et al. Endocrinology 131, 2090-2096 (1992)).

Structure (SMILES)	pIC50 (human NPY Y5 receptor [1])	pIC50 (human NPY Y5 receptor [2])
CCCCc1ccc(NC(=O)N2CCC(NS(=O)(=O)C(C)(C)C)CC2)cc1 [Compound I-120, 4-t-butylsulfonylaminopiperidine-1-carboxylic acid(4-butylphenyl)amide]	8.32	8.85
CCCCc1ccc(NC(=O)C23CCC(NS(=O)(=O)C(C)(C)C)(CC2)CC3)cc1 [Compound I-123]	6.77	8.74
CC(C)(C)S(=O)(=O)NC1CCC(C(=O)Nc2cccc(OC(F)(F)C(F)F)c2)CC1 (centres unmarked) [Compound I-126]	7.88	9.22
CC(=O)c1ccc(NC(=O)C2CCC(NS(=O)(=O)C(C)(C)C)CC2)cc1 (centres unmarked) [Compound I-127]	7.52	8.85
CSc1ccc(NC(=O)C2CCC(NS(=O)(=O)C(C)(C)C)CC2)cc1 (centres unmarked) [Compound I-128]	7.99	8.89
CC(C)(C)S(=O)(=O)NC1CCC(C(=O)Nc2cccc3cc4ccccc4cc23)CC1 (centres unmarked) [Compound I-129]	6.76	8.68
CC(C)(C)S(=O)(=O)NC1CCC(C(=O)Nc2ccc(C(C#N)c3ccccc3)c(Cl)c2)CC1 (centres unmarked) [Compound I-130]	7.37	8.96
Cn1cc(Br)c(-c2cccc(NC(=O)C3CCC(NS(=O)(=O)C(C)(C)C)CC3)c2)n1 (centres unmarked) [Compound I-131]	7.46	8.96
COc1cc2c(cc1NC(=O)C1CCC(NS(=O)(=O)C(C)(C)C)CC1)oc1ccccc12 (centres unmarked) [Compound I-132]	7.52	8.66
CCC(C)COC(=O)/C=C/c1ccc(NC(=O)C2CCC(NS(=O)(=O)C(C)(C)C)CC2)cc1 (centres unmarked) [Compound I-133]	7.68	9.05
CC(C)(C)S(=O)(=O)NC1CCC(C(=O)Nc2cccc(Oc3ccccc3)c2)CC1 (centres unmarked) [Compound I-134]	8.00	9.30
CC(C)(C)S(=O)(=O)NC1CCC(C(=O)Nc2ccc3c(c2)C(=O)c2ccccc2-3)CC1 (centres unmarked) [Compound I-135]	7.66	9.15
CC(C)(C)S(=O)(=O)NC1CCC(C(=O)Nc2ccc(-c3ccc(C#N)cc3)cc2)CC1 (centres unmarked) [Compound I-137]	7.17	8.85
Cc1ccc2cc(NC(=O)C3CCC(NS(=O)(=O)C(C)(C)C)CC3)ccc2n1 (centres unmarked) [Compound I-138]	7.73	9.00
CC(C)(C)S(=O)(=O)NC1CCC(C(=O)Nc2cnc3ccccc3c2)CC1 (centres unmarked) [Compound I-139]	8.12	9.39
CC(C)(C)S(=O)(=O)NC1CCC(C(=O)Nc2ccc3ncccc3c2)CC1 (centres unmarked) [Compound I-140]	8.05	9.32
COc1ccc(NC(=O)C2CCC(NS(=O)(=O)C(C)(C)C)CC2)c(Sc2ccccc2)n1 (centres unmarked) [Compound I-141]	8.13	9.38
CC(C)(C)S(=O)(=O)NC1CCC(C(=O)Nc2nc(-c3cccc4ccccc34)cs2)CC1 (centres unmarked) [Compound I-142]	7.55	9.31
COC(=O)c1scc(NC(=O)C2CCC(NS(=O)(=O)C(C)(C)C)CC2)c1C(=O)OC (centres unmarked) [Compound I-143]	7.36	8.46
CC(C)(C)S(=O)(=O)NC1CCC(C(=O)Nc2cccnc2Oc2ccc(F)cc2F)CC1 (centres unmarked) [Compound I-144]	7.28	8.47
CC(C)(C)S(=O)(=O)NC1CCC(C(=O)Nc2cc(-c3ccco3)[nH]n2)CC1 (centres unmarked) [Compound I-146]	7.70	8.64
COc1ccc(CCNC(=O)C2CCC(NS(=O)(=O)C(C)(C)C)CC2)cc1OC (centres unmarked) [Compound I-147]	7.20	8.15
CCN(CCNC(=O)C1CCC(NS(=O)(=O)C(C)(C)C)CC1)c1ccccc1 (centres unmarked) [Compound I-149]	7.82	9.08
CC(C)(C)S(=O)(=O)NC1CCC(C(=O)NCCSCc2c(Cl)cccc2Cl)CC1 (centres unmarked) [Compound I-150]	8.28	9.77
CC(C)(C)S(=O)(=O)NC1CCC(C(=O)NCCSCc2c(F)cccc2Cl)CC1 (centres unmarked) [Compound I-151]	8.59	9.77
CSc1sc(C(=O)NNC(=O)C2CCC(NS(=O)(=O)C(C)(C)C)CC2)c2c1C(O)CCC2 (centres unmarked) [Compound I-153]	7.54	8.77

Structure (SMILES)	pIC50 (human NPY Y5 receptor [1])	pIC50 (human NPY Y5 receptor [2])
CC(C)(C)S(=O)(=O)NC1CCC(C(=O)Nc2ccc3c(c2)CCC3=O)CC1 (centres unmarked) [Compound I-156]	7.77	9.09
CCOc1cccc(NC(=O)C2CCC(NS(=O)(=O)C(C)(C)C)CC2)c1 (centres unmarked) [Compound I-160]	8.06	9.21
CCCCOc1cccc(NC(=O)C2CCC(NS(=O)(=O)C(C)(C)C)CC2)c1 (centres unmarked) [Compound I-161]	8.51	9.31
COCOc1cccc(NC(=O)C2CCC(NS(=O)(=O)C(C)(C)C)CC2)c1 (centres unmarked) [Compound I-162]	7.49	8.77
CC(C)(C)S(=O)(=O)NC1CCC(C(=O)Nc2cccc(O)c2)CC1 (centres unmarked) [Compound I-163]	7.08	8.64
CCCCOc1ccc(NC(=O)C2CCC(NS(=O)(=O)C(C)(C)C)CC2)cc1 (centres unmarked) [Compound I-164]	8.23	9.15
CCCCOc1ccc(NC(=O)C2CCC(NS(=O)(=O)C(C)(C)C)CC2)c(O)c1 (centres unmarked) [Compound I-165]	7.33	9.36
CCCCOc1ccc(NC(=O)C2CCC(NS(=O)(=O)C(C)(C)C)CC2)cc1O (centres unmarked) [Compound I-166]	8.01	9.43
CCCCOc1ccc(NC(=O)C2CCC(NS(=O)(=O)C(C)(C)C)CC2)cn1 (centres unmarked) [Compound I-167]	7.41	9.14
CC(C)(C)S(=O)(=O)NC1CCC(C(=O)Nc2ccc(Oc3ccccc3)nc2)CC1 (centres unmarked) [Compound I-168]	7.49	8.68
CCCCOc1ccc(NC(=O)C2CCC(NS(=O)(=O)C(C)(C)C)CC2)c([N+](=O)[O-])c1 (centres unmarked) [Compound I-171]	7.15	8.62
CCCCOc1ccc(NC(=O)C2CCC(NS(=O)(=O)C(C)(C)C)CC2)c(N)c1 (centres unmarked) [Compound I-172]	7.44	9.04
CCCCOc1cccc(CNC(=O)C2CCC(NS(=O)(=O)C(C)(C)C)CC2)c1 (centres unmarked) [Compound I-187]	7.89	9.24
CCCCOc1cccc(CONC(=O)C2CCC(NS(=O)(=O)C(C)(C)C)CC2)c1 (centres unmarked) [Compound I-191]	7.96	8.96
CCOc1ccc(NC(=O)C2CCC(NS(=O)(=O)C(C)(C)C)CC2)cc1OCC (centres unmarked) [Compound I-196]	8.17	8.85
CC(=O)c1cccc(NC(=O)C2CCC(NS(=O)(=O)C(C)(C)C)CC2)c1 (centres unmarked) [Compound I-197]	7.42	8.17
CC(C)(C)S(=O)(=O)NC1CCC(C(=O)Nc2ccc3c(c2)CCC3=NO)CC1 (centres unmarked) [Compound I-198]	7.48	8.14
CC(C)(C)S(=O)(=O)NC1CCC(C(=O)Nc2cccc(N3CCOCC3)c2)CC1 (centres unmarked) [Compound I-199]	7.51	8.32
CC(C)(C)S(=O)(=O)NC1CCC(C(=O)Nc2ccc3c(c2)OCCO3)CC1 (centres unmarked) [Compound I-202]	7.17	8.17
CC(C)(C)S(=O)(=O)NC1CCC(C(=O)Nc2ccc(Cc3ccncc3)cc2)CC1 (centres unmarked) [Compound I-206]	7.27	8.23
CC(C)(C)S(=O)(=O)NC1CCC(C(=O)Nc2ccc3ncsc3c2)CC1 (centres unmarked) [Compound I-207]	7.64	8.34
CC(C)(C)S(=O)(=O)NC1CCC(C(=O)Nc2ccc3sccc3c2)CC1 (centres unmarked) [Compound I-210]	7.89	8.96
CC(C)(C)S(=O)(=O)NC1CCC(C(=O)Nc2nnc(-c3ccc(F)cc3)s2)CC1 (centres unmarked) [Compound I-213]	8.40	9.36
C[C@@H]1CN(c2cccc(NC(=O)C3CCC(NS(=O)(=O)C(C)(C)C)CC3)c2)C[C@H](C)O1 (some centres unmarked) [Ia-4]	7.82	8.85
Cc1ccc(NC(=O)C2CCC(NS(=O)(=O)C(C)(C)C)CC2)cc1 (centres unmarked) [Ia-8]	7.47	8.54
CCc1ccc(NC(=O)C2CCC(NS(=O)(=O)C(C)(C)C)CC2)cc1 (centres unmarked) [Ia-9]	7.96	9.03
